Assay results as given in the NIST ThermoML archive (doi:10.1021/je0496950).
± gives the expanded uncertainty stated by the source.

Experiment: mn = molality of the nth substance listed, in mol/kg
Details: 101 kPa, Liquid; for speed of sound: Pulse-echo method

## CC#N [acetonitrile] + [Co+2].[O-][Cl+3]([O-])([O-])[O-].[O-][Cl+3]([O-])([O-])[O-]
288.13 K, m2 = 0
  mass density: 787.307 ± 0.74 kg/m3
293.15 K, m2 = 0
  mass density: 781.933 ± 0.75 kg/m3
298.15 K, m2 = 0
  mass density: 776.535 ± 0.76 kg/m3
303.15 K, m2 = 0
  mass density: 771.114 ± 0.76 kg/m3
308.15 K, m2 = 0
  mass density: 765.664 ± 0.77 kg/m3
313.15 K, m2 = 0
  mass density: 760.181 ± 0.78 kg/m3
323.15 K, m2 = 0
  mass density: 749.107 ± 0.79 kg/m3

## CC#N [acetonitrile] + [Cu+2].[O-][Cl+3]([O-])([O-])[O-].[O-][Cl+3]([O-])([O-])[O-]
288.13 K, m2 = 0
  mass density: 787.308 ± 0.74 kg/m3
293.15 K, m2 = 0
  mass density: 781.932 ± 0.75 kg/m3
298.15 K, m2 = 0
  mass density: 776.532 ± 0.76 kg/m3
303.15 K, m2 = 0
  mass density: 771.102 ± 0.76 kg/m3
308.15 K, m2 = 0
  mass density: 765.645 ± 0.77 kg/m3
313.15 K, m2 = 0
  mass density: 760.155 ± 0.78 kg/m3
323.15 K, m2 = 0
  mass density: 749.067 ± 0.8 kg/m3

## CC#N [acetonitrile] + [Mn+2].[O-][Cl+3]([O-])([O-])[O-].[O-][Cl+3]([O-])([O-])[O-]
288.15 K, m2 = 0
  mass density: 787.308 ± 0.74 kg/m3
293.15 K, m2 = 0
  mass density: 781.932 ± 0.74 kg/m3
298.15 K, m2 = 0
  mass density: 776.531 ± 0.75 kg/m3
303.15 K, m2 = 0
  mass density: 771.102 ± 0.76 kg/m3
308.15 K, m2 = 0
  mass density: 765.645 ± 0.77 kg/m3
313.15 K, m2 = 0
  mass density: 760.156 ± 0.78 kg/m3
323.15 K, m2 = 0
  mass density: 749.07 ± 0.79 kg/m3

## CC#N [acetonitrile] + [Ni+2].[O-][Cl+3]([O-])([O-])[O-].[O-][Cl+3]([O-])([O-])[O-]
288.13 K, m2 = 0
  mass density: 787.307 ± 0.74 kg/m3
293.15 K, m2 = 0
  mass density: 781.93 ± 0.75 kg/m3
298.15 K, m2 = 0
  mass density: 776.53 ± 0.76 kg/m3
303.15 K, m2 = 0
  mass density: 771.101 ± 0.76 kg/m3
308.15 K, m2 = 0
  mass density: 765.645 ± 0.77 kg/m3
313.15 K, m2 = 0
  mass density: 760.155 ± 0.78 kg/m3
323.15 K, m2 = 0
  mass density: 749.068 ± 0.8 kg/m3

## CC#N [acetonitrile] + [O-][Cl+3]([O-])([O-])[O-].[O-][Cl+3]([O-])([O-])[O-].[Zn+2]
288.13 K, m2 = 0
  mass density: 787.312 ± 0.74 kg/m3
293.15 K, m2 = 0
  mass density: 781.934 ± 0.75 kg/m3
298.15 K, m2 = 0
  mass density: 776.535 ± 0.76 kg/m3
303.15 K, m2 = 0
  mass density: 771.106 ± 0.76 kg/m3
308.15 K, m2 = 0
  mass density: 765.649 ± 0.77 kg/m3
313.15 K, m2 = 0
  mass density: 760.158 ± 0.78 kg/m3
323.15 K, m2 = 0
  mass density: 749.07 ± 0.8 kg/m3

## [Co+2].[O-][Cl+3]([O-])([O-])[O-].[O-][Cl+3]([O-])([O-])[O-] [cobalt(II) perchlorate] + CC#N
288.13 K, m1 = 0.0631
  mass density: 799.771 ± 0.72 kg/m3
288.13 K, m1 = 0.1115
  mass density: 809.436 ± 0.71 kg/m3
288.13 K, m1 = 0.1477
  mass density: 816.764 ± 0.7 kg/m3
288.13 K, m1 = 0.1815
  mass density: 823.65 ± 0.7 kg/m3
288.13 K, m1 = 0.2169
  mass density: 831.031 ± 0.69 kg/m3
288.13 K, m1 = 0.2496
  mass density: 837.824 ± 0.68 kg/m3
288.13 K, m1 = 0.2829
  mass density: 844.904 ± 0.67 kg/m3
288.13 K, m1 = 0.3172
  mass density: 852.306 ± 0.67 kg/m3
288.13 K, m1 = 0.3491
  mass density: 859.24 ± 0.66 kg/m3
293.15 K, m1 = 0.0631
  mass density: 794.418 ± 0.73 kg/m3
293.15 K, m1 = 0.1115
  mass density: 804.1 ± 0.72 kg/m3
293.15 K, m1 = 0.1477
  mass density: 811.44 ± 0.71 kg/m3
293.15 K, m1 = 0.1815
  mass density: 818.333 ± 0.7 kg/m3
293.15 K, m1 = 0.2169
  mass density: 825.723 ± 0.69 kg/m3
293.15 K, m1 = 0.2496
  mass density: 832.525 ± 0.69 kg/m3
293.15 K, m1 = 0.2829
  mass density: 839.613 ± 0.68 kg/m3
293.15 K, m1 = 0.3172
  mass density: 847.023 ± 0.67 kg/m3
293.15 K, m1 = 0.3491
  mass density: 853.965 ± 0.67 kg/m3
298.15 K, m1 = 0.06311
  speed of sound: 1282.4 ± 1.4 m/s
298.15 K, m1 = 0.1115
  speed of sound: 1285.1 ± 1.4 m/s
  mass density: 798.743 ± 0.73 kg/m3
298.15 K, m1 = 0.1477
  speed of sound: 1287 ± 1.4 m/s
  mass density: 806.094 ± 0.72 kg/m3
298.15 K, m1 = 0.1815
  speed of sound: 1289 ± 1.4 m/s
  mass density: 812.996 ± 0.71 kg/m3
298.15 K, m1 = 0.2169
  speed of sound: 1290.7 ± 1.4 m/s
  mass density: 820.399 ± 0.7 kg/m3
298.15 K, m1 = 0.2496
  speed of sound: 1292.6 ± 1.4 m/s
  mass density: 827.21 ± 0.69 kg/m3
298.15 K, m1 = 0.2829
  speed of sound: 1294.5 ± 1.4 m/s
  mass density: 834.306 ± 0.69 kg/m3
298.15 K, m1 = 0.3172
  speed of sound: 1296.4 ± 1.4 m/s
  mass density: 841.727 ± 0.68 kg/m3
298.15 K, m1 = 0.3491
  speed of sound: 1298.2 ± 1.4 m/s
  mass density: 848.675 ± 0.67 kg/m3
298.15 K, m1 = 0.0631
  mass density: 789.05 ± 0.74 kg/m3
303.15 K, m1 = 0.0631
  mass density: 783.653 ± 0.74 kg/m3
303.15 K, m1 = 0.1115
  mass density: 793.363 ± 0.73 kg/m3
303.15 K, m1 = 0.1477
  mass density: 800.726 ± 0.72 kg/m3
303.15 K, m1 = 0.1815
  mass density: 807.639 ± 0.72 kg/m3
303.15 K, m1 = 0.2169
  mass density: 815.051 ± 0.71 kg/m3
303.15 K, m1 = 0.2496
  mass density: 821.873 ± 0.7 kg/m3
303.15 K, m1 = 0.2829
  mass density: 828.983 ± 0.69 kg/m3
303.15 K, m1 = 0.3172
  mass density: 836.41 ± 0.69 kg/m3
303.15 K, m1 = 0.3491
  mass density: 843.372 ± 0.68 kg/m3
308.15 K, m1 = 0.0631
  mass density: 778.228 ± 0.75 kg/m3
308.15 K, m1 = 0.1115
  mass density: 787.958 ± 0.74 kg/m3
308.15 K, m1 = 0.1477
  mass density: 795.334 ± 0.73 kg/m3
308.15 K, m1 = 0.1815
  mass density: 802.256 ± 0.72 kg/m3
308.15 K, m1 = 0.2169
  mass density: 809.685 ± 0.71 kg/m3
308.15 K, m1 = 0.2496
  mass density: 816.516 ± 0.71 kg/m3
308.15 K, m1 = 0.2829
  mass density: 823.636 ± 0.7 kg/m3
308.15 K, m1 = 0.3172
  mass density: 831.074 ± 0.69 kg/m3
308.15 K, m1 = 0.3491
  mass density: 838.048 ± 0.68 kg/m3
313.15 K, m1 = 0.0631
  mass density: 772.771 ± 0.76 kg/m3
313.15 K, m1 = 0.1115
  mass density: 782.523 ± 0.75 kg/m3
313.15 K, m1 = 0.1477
  mass density: 789.913 ± 0.74 kg/m3
313.15 K, m1 = 0.1815
  mass density: 796.848 ± 0.73 kg/m3
313.15 K, m1 = 0.2169
  mass density: 804.289 ± 0.72 kg/m3
313.15 K, m1 = 0.2496
  mass density: 811.134 ± 0.71 kg/m3
313.15 K, m1 = 0.2829
  mass density: 818.267 ± 0.7 kg/m3
313.15 K, m1 = 0.3172
  mass density: 825.719 ± 0.7 kg/m3
313.15 K, m1 = 0.3491
  mass density: 832.702 ± 0.69 kg/m3
323.15 K, m1 = 0.0631
  mass density: 761.76 ± 0.78 kg/m3
323.15 K, m1 = 0.1115
  mass density: 771.558 ± 0.76 kg/m3
323.15 K, m1 = 0.1477
  mass density: 778.975 ± 0.75 kg/m3
323.15 K, m1 = 0.1815
  mass density: 785.942 ± 0.74 kg/m3
323.15 K, m1 = 0.2169
  mass density: 793.42 ± 0.74 kg/m3
323.15 K, m1 = 0.2496
  mass density: 800.293 ± 0.73 kg/m3
323.15 K, m1 = 0.2829
  mass density: 807.451 ± 0.72 kg/m3
323.15 K, m1 = 0.3172
  mass density: 814.932 ± 0.71 kg/m3
323.15 K, m1 = 0.3491
  mass density: 821.94 ± 0.7 kg/m3
